Article PMC10675077, “Antimicrobial Properties of New Polyamines Conjugated with Oxygen-Containing Aromatic Functional Groups” (Molecules, 2023)
≈ marks a conversion by molar mass, not a printed value. Marks after values point to notes of the source that are not given here.

Assays:
[1] = Cytotoxicity, flow cytometry viability assay with propidium iodide; format: cell-based, human; conditions: human, Jurkat cells (human lymphocytic leukaemia, ATCC TIB-152), 24 h treatment, average of three experiments, read-out: IC50, cytotoxicity on the human Jurkat cell line
Method: The cytotoxicity of the compounds was assessed via flow cytometry with a viability assay using propidium iodide (PI), a DNA-binding fluorescent probe not permeant to live cells, which is commonly used to detect dead cells in a population. The human lymphocytic leukaemia Jurkat cell line (ATCC TIB-152) was obtained from the American Type Cell Culture (Sigma-Aldrich) and grown in suspension in an RPMI 1640 medium (Thermo Fisher Scientific, Waltham, MA, USA) supplemented with L-glutamine, antibiotics, and 10% heat-inactivated foetal calf serum (FCS, Thermo Fisher Scientific, Waltham, MA, USA). For the viability assay, cells were seeded in plastic 96-well plates at […] in an RPMI 1640 medium supplemented with 5% FCS. The cells were treated for 24 h with a range of concentrations of the test compounds or with the same volume of phosphate buffer (PBS) in control wells. After incubation, cell suspensions were washed, resuspended in 400 μL fresh medium, and incubated for 5 min at room temperature in the dark with 3.75 μM PI (Sigma-Aldrich). Cell viability was determined via flow cytometry using a Gallios flow cytometer (Beckman Coulter). PI fluorescence was excited with an argon-ion laser at 488 nm and collected through a 620/630 nm band-pass emission. Cellular events were discriminated from debris using forward scatter (FS) and side scatter (SS) signals. Cell aggregates were excluded from analysis based on FS-integral and FS-peak. The gates applied for population discrimination were set manually based on control samples. For each sample, 10,000 events were collected. For further analysis, the cytometric data were exported to Kaluza 2.1 software (Beckman Coulter, Brea, CA, USA). Dead cells were identified and quantified as PI-positive events. The cytotoxic potency of test compounds was quantified using their IC50 values, i.e., the compound concentration at which cell viability is inhibited by 50%, as calculated via curve fitting and determined with the correlation coefficient (R2) using GraphPad Prism 9.0 software. Experiments were carried out in triplicate.

[2] = tested on: E. coli JM101; test: Minimal bactericidal concentration, E. coli; format: cell-based, Escherichia coli; conditions: overnight incubation, plating on LB, bacteriostatic if growth at 4 times the MIC; for MBC: Escherichia coli, JM101
Method: Once the MIC was known, the samples were prepared as described in the previous section with polyamine concentrations corresponding to the MIC and half, double, and four times its value. After overnight incubation with the microorganisms, 30 μL of a ten-fold dilution of each one was spread in LB (in the case of bacterial strains) or SC-ura (for yeast strains) plates. They were incubated for 20 h at 37 °C (bacteria) or 48 h at 30 °C (yeasts), and the level of growth was determined. […] Experiments were carried out at least three times.

[3] = tested on: E. coli; test: Checkerboard titration synergy, E. coli; format: cell-based, Escherichia coli; conditions: synergistic when FICI ≤0.5
Method: (§1) The combined antimicrobial activity of the test compounds with the antibacterial or antifungal control agents was performed under the same conditions used for the MIC determination and following the procedures described by Carton Herrán, Reis de Sá et al. and Zharkova et al.. For each experiment, 16 samples (4 rows × 4 columns) in a total volume of 0.5 mL were prepared in tubes using an array of combinations between the MIC value and 0 μg/mL of the compound to be tested in each row, and between the MIC value and 0 μg/mL of the reference drug in each column. In this way, a variety of mixtures with different concentrations of them alone or in combination was obtained. Briefly, 0.5 mL of a microorganism culture was added to each one of the samples, and after incubation for 24 h with shaking at the appropriate temperature (37 °C or 30 °C), the tubs were visually inspected, and the OD600 was measured. From this information, the fractional inhibitory concentration index (FICI) was calculated according to the formula FIC index = ([A]/[CMI A]) + ([B]/[CMI B]), where [A] and [B] are respective concentrations of tested polyamine and reference drug in their combination effectively inhibiting the growth of bacteria or yeast, and [MIC A] and [MIC B] are the individual MICs of the tested polyamine and reference drug when they are used alone. An interaction is considered synergistic when the FICI value is ≤0.5 [41, 42].
(§2) To confirm the data obtained in the checkerboard assay, 30 μL of a ten-fold dilution of the tubes containing concentrations of half of the MIC of each one of the compounds alone (polyamine to be tested and reference drug) and one fourth of the MIC of each one in combination were also spread in LB or SC-ura plates (according to the microorganism considered in each case) and incubated at 37 °C or 30 °C. The visualisation of these plates was performed after 24 or 48 h, respectively. All these experiments were carried out in triplicate.

[4] = tested on: Saccharomyces cerevisiae BY4741/YEplac195-PDR5; test: microbe, parasite or virus in culture; format: cell-based; conditions: 24 h; for MIC: Saccharomyces cerevisiae, read-out: MIC, Yeast, BY4741/ PDR5
Excerpt: (§3) The microorganisms used for the susceptibility tests were the bacteria Escherichia coli JM101 and Staphylococcus aureus BHI, and the yeast Saccharomyces cerevisiae strains BY4741 (MAT a his3Δ1 leu2Δ0 met15Δ0 ura3Δ0 (EUROSCARF)) carrying YEplac195 (from EUROSCARF) or YEPlac195-PDR5 (provided by Ayse Banu Demir, Izmir University of Economics, Turkey) plasmids.
(§4) Bacterial strains were usually maintained and grown in an LB medium (0.5% (w/v) yeast extract, 1% (w/v) bactotryptone, and 1% (w/v) NaCl) at 37 °C. For MIC (minimal inhibitory concentration) and MMC (minimal microbicidal concentration) assays, and for the determination of synergies, overnight growth was carried out in 2% (w/v) bactopeptone (BP), and then the cultures were diluted and incubated for several hours in 2% (w/v) BP for ensuring logarithmic growth. Yeast strains were grown in an SC-ura medium (0.17% (w/v) yeast nitrogen base without amino acids and ammonium sulphate, 0.2% (w/v) drop-out without uracil, 0.5% (w/v) (NH4)2SO4, and 2% (w/v) glucose) at 30 °C. Liquid cultures were incubated with shaking (200 rpm). Solid media also contained 2% (w/v) agar.
(§5) The determination of the MIC for yeast strains was carried out following a similar procedure to that of the polyamines and antifungal reference agents: Serial dilutions of each one in phosphate buffer (20 mM, pH 7.4, 0.5 mL) were prepared and mixed with a suspension of yeast cells (OD600 0.04 in SC-ura 2X (VWR, Atlanta, GA, USA), 0.5 mL). […] Experiments were carried out at least three times in all cases.

[5] = tested on: Saccharomyces cerevisiae BY4741/YEplac195; test: microbe, parasite or virus in culture; format: cell-based; conditions: 24 h, 30 °C, average of at least three experiments; for MIC: Saccharomyces cerevisiae, read-out: MIC, Yeast, BY4741/ YEplac195
Excerpt: as §3, §4, §5

[6] = tested on: BY4741/PDR5; test: Checkerboard titration synergy, BY4741/PDR5; format: cell-based, Saccharomyces cerevisiae; conditions: synergistic when FICI ≤0.5
Method: as §1, §2

Molecule: c1cc2nc(c1)CNCCN(CCNCc1ccc3c(c1)CCO3)CCNC2 [Compound 8a, 2-(3,6,9-triaza-1(2,6)-pyridinacyclodecaphane-6-yl)-N-((2,3-dihydrobenzofuran-5-yl)methyl)ethan-1-amine]
- IC50 at 24 h [1]: 128 µg/mL (≈ 335 µM)
- MBC [2]: 60 µg/mL (≈ 157 µM)
- Synergy with Ampicillin [3]: positive results and +
- Synergy with Ciprofloxacin [3]: -
- Synergy with Doxycycline [3]: positive results and +
- Synergy with Gentamicin [3]: positive results and +
- MIC [4]: 400 µg/mL
- MIC [5]: 400 µg/mL

Molecule: c1cc2nc(c1)CNCCN(CCNCc1ccc3c(c1)OCO3)CCNC2 [Compound 5a, 2-(3,6,9-triaza-1(2,6)-pyridinacyclodecaphane-6-yl)-N-(benzo[d][1,3]dioxol-5-ylmethyl)ethan-1-amine]
- IC50 at 24 h [1]: 37.8 µg/mL (≈ 98.7 µM)
- MBC [2]: 10 µg/mL (≈ 26.1 µM)
- Synergy with Amphotericin B [6]: positive results and +
- Synergy with Cycloheximide [6]: positive results and +
- MIC [4]: 60 µg/mL
- MIC [5]: 60 µg/mL

Molecule: Oc1ccccc1CNCCN1CCNCc2cccc(n2)CNCC1 [Compound 6a]
- IC50 at 24 h [1]: 98 µg/mL (≈ 276 µM)
- MBC [2]: 10 µg/mL (≈ 28.1 µM)
- Synergy with Ampicillin [3]: no synergy and -
- Synergy with Ciprofloxacin [3]: no synergy and -
- Synergy with Doxycycline [3]: no synergy and -
- Synergy with Gentamicin [3]: no synergy and -
- Synergy with Amphotericin B [6]: positive results and +
- Synergy with Cycloheximide [6]: positive results and +
- MIC [4]: 45 µg/mL
- MIC [5]: 45 µg/mL

Molecule: N^1-(benzo[d][1,3]dioxol-5-ylmethyl)-N^3-(2-((2-((3-((benzo[d][1,3]dioxol-5-ylmethyl)amino)propyl)amino)ethyl)(2-((3-(((2,3-dihydrobenzofuran-6-yl)methyl)amino)propyl)amino)ethyl)amino)ethyl)propane-1,3-diamine [Compound 4a]
- Minimal bactericidal concentration (MBC), E. coli JM101 [2]: 10 ^a µg/mL
- Synergy with Amphotericin B [6]: positive results and +
- Synergy with Cycloheximide [6]: positive results and +
- MIC, Yeast, BY4741/ PDR5 ([4]; 30 °C, Pdr5-overexpressing strain): 150 µg/mL
- MIC, Yeast, BY4741/ YEplac195 [5]: 150 µg/mL

Molecule: Oc1ccc(CNCCN2CCNCc3cccc(n3)CNCC2)cc1 [Compound 7a]
- IC50 at 24 h [1]: 951 µg/mL (≈ 2670 µM)
- Minimal bactericidal concentration (MBC), E. coli JM101 [2]: Bacteriostatic
- Synergy with Ampicillin [3]: -
- Synergy with Ciprofloxacin [3]: -
- Synergy with Doxycycline [3]: -
- Synergy with Gentamicin [3]: positive results and +
- MIC [4]: 295 µg/mL
- MIC [5]: 295 µg/mL
